The test deals with H1047R PIK3CA enzyme (Homo sapiens, UniProt P42336, H1047R). The test can be described thus: ADP-Glo Biochemical PIK3CA Kinase Assay. In general terms: In ADP-Glo the light output rises with the ADP produced.
Sequence of H1047R PIK3CA enzyme (P42336 whole entry H1047R): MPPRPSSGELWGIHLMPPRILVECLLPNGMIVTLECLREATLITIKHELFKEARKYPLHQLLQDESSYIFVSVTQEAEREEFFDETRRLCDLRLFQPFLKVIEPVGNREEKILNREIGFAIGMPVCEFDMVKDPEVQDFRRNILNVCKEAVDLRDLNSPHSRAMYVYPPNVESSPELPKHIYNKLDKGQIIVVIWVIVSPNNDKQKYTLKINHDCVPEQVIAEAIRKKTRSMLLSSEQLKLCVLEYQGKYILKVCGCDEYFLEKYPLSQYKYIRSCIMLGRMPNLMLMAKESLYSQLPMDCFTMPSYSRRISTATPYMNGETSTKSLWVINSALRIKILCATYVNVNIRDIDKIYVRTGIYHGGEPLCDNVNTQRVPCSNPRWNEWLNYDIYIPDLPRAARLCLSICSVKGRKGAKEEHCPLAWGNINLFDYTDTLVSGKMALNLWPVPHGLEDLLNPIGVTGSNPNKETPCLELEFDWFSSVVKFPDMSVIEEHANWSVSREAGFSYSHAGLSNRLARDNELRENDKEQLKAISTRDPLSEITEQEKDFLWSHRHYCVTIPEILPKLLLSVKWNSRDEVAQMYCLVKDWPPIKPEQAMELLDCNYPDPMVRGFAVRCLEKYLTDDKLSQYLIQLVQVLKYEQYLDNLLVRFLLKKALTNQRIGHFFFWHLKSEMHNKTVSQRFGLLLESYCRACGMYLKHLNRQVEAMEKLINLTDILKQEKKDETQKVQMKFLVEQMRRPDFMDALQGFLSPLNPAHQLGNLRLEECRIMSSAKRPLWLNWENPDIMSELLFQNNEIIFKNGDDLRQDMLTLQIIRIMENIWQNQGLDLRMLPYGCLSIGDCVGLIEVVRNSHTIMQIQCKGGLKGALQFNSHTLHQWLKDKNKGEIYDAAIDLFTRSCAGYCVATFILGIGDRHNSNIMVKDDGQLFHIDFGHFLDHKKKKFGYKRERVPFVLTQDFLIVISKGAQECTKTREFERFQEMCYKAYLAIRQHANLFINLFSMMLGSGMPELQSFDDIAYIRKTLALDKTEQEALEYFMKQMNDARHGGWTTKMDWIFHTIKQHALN
Sequence of H1047R PIK3CA enzyme (P27986 whole entry partner): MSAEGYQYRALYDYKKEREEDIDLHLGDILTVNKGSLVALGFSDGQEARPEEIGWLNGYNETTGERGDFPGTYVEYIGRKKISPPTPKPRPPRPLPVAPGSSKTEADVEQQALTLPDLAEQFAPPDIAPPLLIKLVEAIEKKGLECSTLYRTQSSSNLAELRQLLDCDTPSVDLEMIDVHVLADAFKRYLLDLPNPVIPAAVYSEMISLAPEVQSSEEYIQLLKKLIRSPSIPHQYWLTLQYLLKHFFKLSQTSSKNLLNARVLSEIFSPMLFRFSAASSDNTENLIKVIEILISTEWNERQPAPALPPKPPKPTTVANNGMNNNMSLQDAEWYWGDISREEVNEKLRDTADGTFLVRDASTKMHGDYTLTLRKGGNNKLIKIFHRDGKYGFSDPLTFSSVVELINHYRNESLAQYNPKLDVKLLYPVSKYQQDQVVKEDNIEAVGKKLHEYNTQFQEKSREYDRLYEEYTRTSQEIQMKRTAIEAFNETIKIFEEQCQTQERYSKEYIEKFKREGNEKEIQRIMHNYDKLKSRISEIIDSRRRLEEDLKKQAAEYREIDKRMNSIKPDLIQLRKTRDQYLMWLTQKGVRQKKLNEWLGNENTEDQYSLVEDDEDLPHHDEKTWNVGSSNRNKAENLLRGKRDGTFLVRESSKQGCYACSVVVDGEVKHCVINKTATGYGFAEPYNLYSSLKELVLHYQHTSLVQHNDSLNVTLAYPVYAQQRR
Consider `O=C(Nc1cc(OC(F)F)cc2c1C(c1cc(F)ccc1Cl)NC2=O)c1cc(F)cc(C(F)(F)F)c1` (stereo not drawn) [Compound I-812], for which the IC50 (commonly the midpoint of a concentration-inhibition curve) is ≤ 100 nM.

Turning to `CC1(Nc2cc(NC(=O)c3cc(F)cc(C(F)(F)F)c3)c3c(c2)C(=O)N[C@H]3c2cc(F)ccc2Cl)COC1` [Compound I-813], the IC50 is ≤ 100 nM. As for `O=C(Nc1cc(-c2ccn[nH]2)cc2c1C(c1cc(F)ccc1Cl)NC2=O)c1cc(F)cc(C(F)(F)F)c1` (stereo not drawn) [Compound I-815], the IC50 is ≤ 100 nM. In turn, `O=C(Nc1cc(Br)cc2c1C(c1cc(F)ccc1Cl)NC2=O)c1cc(F)cc(Cl)c1Cl` (stereo not drawn) [Compound I-816] gave an IC50 of 100 to 500 nM. Under `CC1(Cc2cc(NC(=O)c3cc(F)cc(C(F)(F)F)c3)c3c(c2)C(=O)N[C@@H]3c2cc(F)ccc2Cl)COC1` [Compound I-817] stands 1000 to 10000 nM. Under `CC1(Cc2cc(NC(=O)c3cc(F)cc(C(F)(F)F)c3)c3c(c2)C(=O)N[C@H]3c2cc(F)ccc2Cl)COC1` [Compound I-818] stands ≤ 100 nM; under `CC(C)(O)COc1cc(NC(=O)c2cc(F)cc(Cl)c2)c2c(c1)C(=O)NC2c1cc(F)ccc1Cl` (stereo not drawn) [Compound I-819], ≤ 100 nM. On to `COC(C)(C)Cc1cc(NC(=O)c2cc(F)cc(C(F)(F)F)c2)c2c(c1)C(=O)NC2c1cc(F)ccc1Cl` (stereo not drawn) [Compound I-820], for which the IC50 is ≤ 100 nM. As for `O=C(Nc1cc(-c2ccc3nncn3c2)cc2c1C(c1cc(F)ccc1Cl)NC2=O)c1cc(F)cc(C(F)(F)F)c1` (stereo not drawn) [Compound I-821], the figure is ≤ 100 nM; as for `O=C(Nc1cc(-c2cnc(C3CC3)nc2)cc2c1C(c1cc(F)ccc1Cl)NC2=O)c1cc(F)cc(C(F)(F)F)c1` (stereo not drawn) [Compound I-822], ≤ 100 nM.

For `O=C(Nc1cc(-c2cnc(C(F)(F)F)nc2)cc2c1C(c1cc(F)ccc1Cl)NC2=O)c1cc(F)cc(C(F)(F)F)c1` (stereo not drawn) [Compound I-823], the IC50 is ≤ 100 nM. On to `O=C(Nc1cc(-c2ccc3ncnn3c2)cc2c1C(c1cc(F)ccc1Cl)NC2=O)c1cc(F)cc(C(F)(F)F)c1` (stereo not drawn) [Compound I-824], for which the IC50 is ≤ 100 nM.

As to `O=C(Nc1cc(-c2cnc3nccn3c2)cc2c1C(c1cc(F)ccc1Cl)NC2=O)c1cc(F)cc(C(F)(F)F)c1` (stereo not drawn) [Compound I-825], the IC50 is ≤ 100 nM. For the compound `O=C(Nc1cc(-c2ccc3nccn3c2)cc2c1[C@@H](c1cc(F)ccc1Cl)NC2=O)c1cc(F)cc(C(F)(F)F)c1` [Compound I-826], the IC50 was 500 to 1000 nM.

In the case of `O=C(Nc1cc(-c2ccc3nccn3c2)cc2c1[C@H](c1cc(F)ccc1Cl)NC2=O)c1cc(F)cc(C(F)(F)F)c1` [Compound I-827], the IC50 was ≤ 100 nM.

Consider `Nc1cc(C2NC(=O)c3cccc(NC(=O)c4cc(F)cc(C(F)(F)F)c4)c32)ccn1` (stereo not drawn) [Compound I-828], for which the IC50 was in the range of 10000 to 100000 nM. As for `CC1(Nc2cc(NC(=O)c3cc(F)cc(C(F)(F)F)c3)c3c(c2)C(=O)N[C@@H]3c2cc(F)ccc2Cl)COC1` [Compound I-829], the figure is 500 to 1000 nM; as for `O=C(Nc1cc(NC2COC2)cc2c1[C@@H](c1cc(F)ccc1Cl)NC2=O)c1cc(F)cc(C(F)(F)F)c1` [Compound I-830], 1000 to 10000 nM.

As for `O=C(Nc1cc(Br)cc2c1C(c1cc(F)ccc1Cl)NC2=O)c1cc(F)cc(OC(F)(F)F)c1` (stereo not drawn) [Compound I-831], the 50% inhibitory concentration (IC50) is 100 to 500 nM.

Take `O=C(Nc1cc(Br)cc2c1C(c1cc(F)ccc1Cl)NC2=O)c1cc(F)cc([N+](=O)[O-])c1` (stereo not drawn) [Compound I-832]: the IC50 is ≤ 100 nM. The compound `O=C(Nc1cc(Br)cc2c1C(c1cc(F)ccc1Cl)NC2=O)c1cc(F)cc(OC(F)F)c1` (stereo not drawn) [Compound I-833] came in with an IC50 of 100 to 500 nM. The compound `COc1c(Cl)cc(F)cc1C(=O)Nc1cc(Br)cc2c1C(c1cc(F)ccc1Cl)NC2=O` (stereo not drawn) [Compound I-834] registered a half-maximal inhibitory concentration (IC50) of 1000 to 10000 nM. In turn, `O=C(Nc1cc(Br)cc2c1C(c1cc(F)ccc1Cl)NC2=O)c1cc(F)cc(C(F)F)c1` (stereo not drawn) [Compound I-835] displayed an IC50 of 100 to 500 nM.

`O=C(Nc1cc(Br)cc2c1C(c1cc(F)ccc1Cl)NC2=O)c1cc(F)cc(Cl)c1F` (stereo not drawn) [Compound I-836] yielded an IC50 of 500 to 1000 nM. As to `O=C(Nc1cc(Br)cc2c1C(c1cc(F)ccc1Cl)NC2=O)c1cc(F)ccc1C(F)F` (stereo not drawn) [Compound I-837], the IC50 lay within 1000 to 10000 nM. Consider `O=C(Nc1cc(-c2cnc[nH]2)cc2c1C(c1cc(F)ccc1Cl)NC2=O)c1cc(F)cc(C(F)(F)F)c1` (stereo not drawn) [Compound I-838], for which the IC50 was ≤ 100 nM. As to `CNc1cc(C(F)(F)F)cc(C(=O)Nc2cccc3c2C(c2cc(F)ccc2Cl)NC3=O)n1` (stereo not drawn) [Compound I-839], the IC50 lay in the range of 10000 to 100000 nM. `Cc1ccccc1CC1NC(=O)c2cccc(NC(=O)c3cc(F)cc(C(F)(F)F)c3)c21` (stereo not drawn) [Compound I-841] yielded an IC50 of 1000 to 10000 nM. Under `O=C1NC(c2cc(F)ccc2Cl)c2c1cccc2-c1nc2c(C(F)(F)F)cc(F)cc2[nH]1` (stereo not drawn) [Compound I-842] stands 100 to 500 nM. As for `Nc1c(Cl)cc(F)cc1C(=O)Nc1cc(Br)cc2c1C(c1cc(F)ccc1Cl)NC2=O` (stereo not drawn) [Compound I-843], the figure is 100 to 500 nM; as for `O=C(Nc1cccc2c1C(c1ccc3cn[nH]c3c1)NC2=O)c1cc(F)cc(C(F)(F)F)c1` (stereo not drawn) [Compound I-844], 10000 to 100000 nM; as for `O=C(Nc1cc(Br)cc2c1C(c1cc(F)ccc1Cl)NC2=O)c1cc(F)cc(Cl)c1O` (stereo not drawn) [Compound I-845], 500 to 1000 nM. The compound `O/N=C(\Nc1cccc2c1C(c1cc(F)ccc1Cl)NC2=S)c1cc(F)cc(C(F)(F)F)c1` (stereo not drawn) [Compound I-846] gave an IC50 of 500 to 1000 nM.

With `O=C(Nc1cc(Br)c(Cl)c2c1C(c1cc(F)ccc1Cl)NC2=O)c1cc(F)cc(C(F)(F)F)c1` (stereo not drawn) [Compound I-847], the IC50 is ≤ 100 nM.

Take `CC(C)(O)CN(CC(C)(C)O)c1cc(NC(=O)c2cc(F)cc(C(F)(F)F)c2)c2c(c1)C(=O)NC2c1cc(F)ccc1Cl` (stereo not drawn) [Compound I-848]: the IC50 was 1000 to 10000 nM.

With `Cc1ncc(-c2cc(NC(=O)c3cc(F)cc(Cl)c3)c3c(c2)C(=O)NC3c2cc(F)ccc2Cl)cn1` (stereo not drawn) [Compound I-849], the IC50 is ≤ 100 nM. Under `COc1cc(C)c(C(=O)Nc2cc(Br)cc3c2C(c2cc(F)ccc2Cl)NC3=O)cn1` (stereo not drawn) [Compound I-850] stands 10000 to 100000 nM; under `O=C(Nc1cc(-c2ccc3c(c2)OCCCO3)cc2c1C(c1cc(F)ccc1Cl)NC2=O)c1cc(F)cc(C(F)(F)F)c1` (stereo not drawn) [Compound I-851], ≤ 100 nM; under `O=C(Nc1cc(-c2cncc3ccccc23)cc2c1C(c1cc(F)ccc1Cl)NC2=O)c1cc(F)cc(C(F)(F)F)c1` (stereo not drawn) [Compound I-852], ≤ 100 nM. Turning to `Cn1ccc2cc(-c3cc(NC(=O)c4cc(F)cc(C(F)(F)F)c4)c4c(c3)C(=O)NC4c3cc(F)ccc3Cl)ccc21` (stereo not drawn) [Compound I-853], the IC50 fell in the range of 100 to 500 nM. As for `COc1cncc(-c2cc(NC(=O)c3cc(F)cc(C(F)(F)F)c3)c3c(c2)C(=O)NC3c2cc(F)ccc2Cl)c1` (stereo not drawn) [Compound I-854], the figure is ≤ 100 nM; as for `O=C(Nc1cc(-c2ccc3cc[nH]c3c2)cc2c1C(c1cc(F)ccc1Cl)NC2=O)c1cc(F)cc(C(F)(F)F)c1` (stereo not drawn) [Compound I-855], 100 to 500 nM; as for `CC1(n2[nH]c(=O)c3cccc(NC(=O)c4cc(F)cc(C(F)(F)F)c4)c32)CCCCC1` [Compound I-857], 1000 to 10000 nM. Regarding `COc1c(F)cc(Cl)cc1C(=O)Nc1cc(Br)cc2c1C(c1cc(F)ccc1Cl)NC2=O` (stereo not drawn) [Compound I-858], the IC50 was in the range of 1000 to 10000 nM. Under `O=C(Nc1cc(Br)cc2c1C(c1cc(F)ccc1Cl)NC2=O)c1cc(Cl)ccc1OC(F)(F)F` (stereo not drawn) [Compound I-859] stands 1000 to 10000 nM; under `O=C(Nc1cccc2c1[C@@H](c1cc(F)ccc1Cl)NC2=O)c1cc(F)cc(C(F)(F)F)c1` [Compound I-860], 1000 to 10000 nM. As for `O=C1CCC(c2cc(NC(=O)c3cc(F)cc(C(F)(F)F)c3)c3c(c2)C(=O)NC3c2cc(F)ccc2Cl)N1` (stereo not drawn) [Compound I-861], the figure is ≤ 100 nM. `O=C1NC(c2cc(F)ccc2Cl)c2c(Nc3ncnc4ccccc34)cc(Br)cc21` (stereo not drawn) [Compound I-864] returned an IC50 of 10000 to 100000 nM. Compound `O=C(Nc1cc(-c2ccn[nH]2)cc2c1[C@@H](c1cc(F)ccc1Cl)NC2=O)c1cc(F)cc(C(F)(F)F)c1` [Compound I-866] returned an IC50 of 1000 to 10000 nM. In the case of `Cn1ccc(Nc2cc(NC(=O)c3cc(F)cc(C(F)(F)F)c3)c3c(c2)C(=O)NC3c2cc(F)ccc2Cl)n1` (stereo not drawn) [Compound I-867], the IC50 was ≤ 100 nM. `N#CC1(CNc2cc(NC(=O)c3cc(F)cc(C(F)(F)F)c3)c3c(c2)C(=O)N[C@@H]3c2cc(F)ccc2Cl)CC1` [Compound I-869] returned an IC50 of 100 to 500 nM. As for `Cn1cc2c(C(=O)Nc3cccc4c3C(c3cc(F)ccc3Cl)NC4=O)cc(F)cc2n1` (stereo not drawn) [Compound I-870], the figure is 10000 to 100000 nM. With `Cn1ncc2c(C(=O)Nc3cccc4c3C(c3cc(F)ccc3Cl)NC4=O)cc(F)cc21` (stereo not drawn) [Compound I-871], the IC50 lay in the range of 10000 to 100000 nM. `O=C(Nc1cccc2c1C(c1cc(F)ccc1Cl)NC2=O)c1cc(F)ccc1NC1CCC1` (stereo not drawn) [Compound I-872]: the IC50 was in the range of 1000 to 10000 nM. As for `CC1(C)CC(COc2cc(NC(=O)c3cc(F)cc(C(F)(F)F)c3)c3c(c2)C(=O)NC3c2cc(F)ccc2Cl)O1` (stereo not drawn) [Compound I-873], the figure is 100 to 500 nM; as for `CNc1cc(C2NC(=O)c3cccc(NC(=O)c4cc(F)cc(C(F)(F)F)c4)c32)ccn1` (stereo not drawn) [Compound I-874], 10000 to 100000 nM; as for `Cc1ccc(C(=O)Nc2cc(Br)cc3c2C(c2cc(F)ccc2Cl)NC3=O)cc1C(F)(F)F` (stereo not drawn) [Compound I-875], 100 to 500 nM. As to `O=C1NC(c2cc(F)ccc2Cl)c2c(NC(=O)C34CC5CC(CC(C5)C3)C4)cccc21` (stereo not drawn) [Compound I-876], the IC50 fell in the range of 100 to 500 nM. As for `COc1ccc(C(=O)Nc2cc(Br)cc3c2C(c2cc(F)ccc2Cl)NC3=O)cc1C(F)(F)F` (stereo not drawn) [Compound I-877], the IC50 fell in the range of 500 to 1000 nM. Under `Cn1cc(-c2cc(NC(=O)c3cc(F)cc(C(F)(F)F)c3)c3c(c2)C(=O)NC3c2cc(F)ccc2Cl)nn1` (stereo not drawn) [Compound I-879] stands ≤ 100 nM; under `Cn1c(Nc2cccc3c2C(c2cc(F)ccc2Cl)NC3=O)nnc1C1CC1` (stereo not drawn) [Compound I-880], 10000 to 100000 nM. `COc1ncc(-c2cc(NC(=O)c3cc(F)cc(C(F)(F)F)c3)c3c(c2)C(=O)N[C@@H]3c2cc(F)ccc2Cl)cn1` [Compound I-881] had an IC50 of 1000 to 10000 nM. Compound `O=C(Nc1cc(-c2cnc3nccn3c2)cc2c1[C@@H](c1cc(F)ccc1Cl)NC2=O)c1cc(F)cc(C(F)(F)F)c1` [Compound I-883] yielded an IC50 of 1000 to 10000 nM.

The values are drawn from patent publication US12581252B2, “Substituted pyrrolo[3,4-b]pyridines as PI3K-α inhibitors” (Relay Therapeutics, Inc., priority 2020, dated 2026).
